# Patent US20090197872A1 (priority 2006, published 2009)
# Counter-ions that a name gives are not always drawn.
# Target: T1, α7-subtype of nicotinic receptors (Rattus norvegicus, UniProt Q05941)
# T1 construct: from tissue; host or cells: rat brain
# Assay: biochemical
# Details: read-out: Inhibition of 3H-α-Bungarotoxine Binding IC50
# T1 sequence (Q05941 23-502): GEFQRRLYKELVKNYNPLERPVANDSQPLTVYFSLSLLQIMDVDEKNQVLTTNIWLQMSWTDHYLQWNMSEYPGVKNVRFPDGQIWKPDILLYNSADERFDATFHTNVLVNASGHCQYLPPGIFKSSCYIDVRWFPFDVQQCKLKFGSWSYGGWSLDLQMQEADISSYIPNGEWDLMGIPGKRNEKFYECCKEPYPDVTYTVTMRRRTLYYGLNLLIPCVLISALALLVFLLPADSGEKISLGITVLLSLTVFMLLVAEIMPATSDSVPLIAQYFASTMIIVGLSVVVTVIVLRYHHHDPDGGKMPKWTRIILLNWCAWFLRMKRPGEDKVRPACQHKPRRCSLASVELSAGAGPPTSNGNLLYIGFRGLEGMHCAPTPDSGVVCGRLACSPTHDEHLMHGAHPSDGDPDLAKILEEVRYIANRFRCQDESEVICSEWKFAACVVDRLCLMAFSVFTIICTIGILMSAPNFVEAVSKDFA
smiles,measurement,value
"O=C(Nc1cnc(N2CCN3CCC2CC3)nc1)Oc1ccccc1 [Compound A2, [2-(1,4-Diaza-bicyclo[3.2.2]non-4-yl)-pyrimidin-5-yl]-carbamic Acid Phenyl Ester Hydrochloric Acid Salt]",IC50,< 300 nM
